Molecular target: T1, Dimer of Gag-Pol polyprotein [489-587] (Human immunodeficiency virus 1, UniProt P12497)
T1 construct: 489-587
Test: Protease Inhibition Assay
Experimental: For determination of IC50 values, HIV-1 protease was added to assay buffer containing inhibitor and the substrate (H-His-Lys-Ala-Arg-Val-Leu- (p-NO2) Phe-Glu-Ala-norleucine-Ser-NH2). The Leu- (p-NO2) Phe bond of the substrate was cleaved by the enzyme, and the substrate and products were separated by reversed-phase HPLC. Absorbance was measured at 220 nm, peak areas were determined, and percentage conversion to product was calculated.

Row | SMILES | Ki [nM] | IC50 (pH 6.2, 37 °C) [nM] | further results
1 | Cc1cc(SC2C(=O)CC(CCc3ccc(O)cc3)(C3CC3)OC2=O)c(C(C)(C)C)cc1OCCO (stereo not given) [(3-(2-tert-Butyl-4-(2-hydroxy-ethoxy)-5-methyl-phenylsulfanyl)-6-cyclopropyl-4-hydroxy-6-[2-(4-hydroxy-phenyl)-ethyl]-5,6-dihydro-pyran-2-one] |  |  | IC50: 3.8 nM
2 | Cc1cc(SC2C(=O)C[C@](CCc3ccc(O)cc3)(C(C)C)OC2=O)c(C(C)(C)C)cc1CO (stereo not given in full) [(3-(2-tert-Butyl-4-hydroxymethyl-5-methyl-phenylsulfanyl)-4-hydroxy-6-[2-(4-hydroxypheny)-ethyl]-6-isopropyl-5,6-dihydro-pyran-2-one] | 31 |  | 
3 | Cc1cc(SC2C(=O)CC(CCc3ccc(O)cc3)(C3CC3)OC2=O)c(C(C)(C)C)cc1CO (stereo not given) [(3-(2-tert-Butyl-4-hydroxymethyl-5-methyl-phenylsulfanyl)-6-cyclopropyl-4-hydroxy-6-[2-(4-hydroxy-phenyl)-ethyl]-5,6-dihydro-pyran-2-one] |  | 1 | 
4 | Cc1ccc(C(C)(C)C)c(SC2C(=O)CC(CCc3ccc(O)cc3)(C3CCCC3)OC2=O)c1 (stereo not given) [(3-(2-tert-Butyl-5-methyl-phenylsulfanyl)-4-hydroxy-6-[2-(4-hydroxy-phenyl)-ethyl]-6-cyclopentyl-5,6-dihydro-pyran-2-one] |  | 7.2 | 
5 | Cc1ccc(C(C)(C)C)c(SC2C(=O)CC(CCc3ccc(O)cc3)(C(C)C)OC2=O)c1 (stereo not given) [(3-(2-tert-Butyl-5-methyl-phenylsulfanyl)-4-hydroxy-6-[2-(4-hydroxy-phenyl)-ethyl]-6-isopropyl-5,6-dihydro-pyran-2-one] |  | 4.6 | 
6 | Cc1ccc(C(C)(C)C)c(SC2C(=O)CC(C)(CCc3ccc(O)cc3)OC2=O)c1 (stereo not given) [(3-(2-tert-Butyl-5-methyl-phenylsulfanyl)-4-hydroxy-6-[2-(4-hydroxy-phenyl)-ethyl]-6-methyl-5,6-dihydro-pyran-2-one] |  | 9.5 | 
7 | Cc1ccc(C(C)(C)C)c(SC2C(=O)CC(CCc3ccc(O)cc3)(C3CC3)OC2=O)c1 (stereo not given) [(3-(2-tert-Butyl-5-methyl-phenylsulfanyl)-6-cyclopropyl-4-hydroxy-6-[2-(4-hydroxy-phenyl)-ethyl]-5,6-dihydro-pyran-2-one] |  | 8 | 
8 | Cc1cc(SC2C(=O)C[C@](CCc3ccccc3)(C(C)C)OC2=O)c(C(C)(C)C)cc1CO (stereo partly drawn) [(6R)-3-{[2-tert-butyl-4-(hydroxymethyl)-5-methylphenyl]sulfanyl}-4-hydroxy-6-(2-phenylethyl)-6-(propan-2-yl)-5,6-dihydro-2H-pyran-2-one] | 160 |  | 
9 | Cc1cc(SC2C(=O)C[C@](CCc3ccc(N)cc3)(C(C)C)OC2=O)c(C(C)(C)C)cc1CO (stereo partly drawn) [(6R)-6-[2-(4-aminophenyl)ethyl]-3-{[2-tert-butyl-4-(hydroxymethyl)-5-methylphenyl]sulfanyl}-4-hydroxy-6-(propan-2-yl)-5,6-dihydro-2H-pyran-2-one] | 25 |  | 
10 | Cc1cc(SC2C(=O)C[C@@](CCc3ccccc3)(C(C)C)OC2=O)c(C(C)(C)C)cc1CO (stereo partly drawn) [(6S)-3-{[2-tert-butyl-4-(hydroxymethyl)-5-methylphenyl]sulfanyl}-4-hydroxy-6-(2-phenylethyl)-6-(propan-2-yl)-5,6-dihydro-2H-pyran-2-one] | 0.09 |  | 
11 | Cc1cc(SC2C(=O)C[C@@](CCc3ccc(O)cc3)(C(C)C)OC2=O)c(C(C)(C)C)cc1CO (stereo partly drawn) [(6S)-3-{[2-tert-butyl-4-(hydroxymethyl)-5-methylphenyl]sulfanyl}-4-hydroxy-6-[2-(4-hydroxyphenyl)ethyl]-6-(propan-2-yl)-5,6-dihydro-2H-pyran-2-one] | 0.09 |  | 
12 | Cc1cc(SC2C(=O)C[C@@](CCc3ccc(N)cc3)(C(C)C)OC2=O)c(C(C)(C)C)cc1CO (stereo partly drawn) [(6S)-6-[2-(4-aminophenyl)ethyl]-3-{[2-tert-butyl-4-(hydroxymethyl)-5-methylphenyl]sulfanyl}-4-hydroxy-6-(propan-2-yl)-5,6-dihydro-2H-pyran-2-one] | 0.11 |  | 
13 | Cc1cc(SC2C(=O)CC(CCc3ccc(O)cc3)(C3CCCCC3)OC2=O)c(C(C)(C)C)cc1CO (stereo not given) [PD 178390 Analog 21] |  | 2.5 | 
14 | Cc1cc(SC2C(=O)CC(CCc3ccc(O)cc3)(C(C)C)OC2=O)c(C(C)(C)C)cc1O (stereo not given) [PD 178390 Analog 23] |  |  | Ki (pH 6.2, 37 °C): 0.03 nM
15 | Cc1cc(SC2C(=O)CC(CCc3ccccc3)(c3ccccc3)OC2=O)c(C(C)(C)C)cc1CO (stereo not given) [PD 178390 Analog 38] |  |  | IC50: 6.5 nM

Source: BindingDB's records for doi:10.1016/s0968-0896(99)00215-1 (Parke-Davis Pharmaceutical Research, 1999)
